Experimental data published in patent US10633669B2, “Herbicide-resistant protein, encoding gene and use thereof” (BEIJING DABEINONG TECHNOLOGY GROUP CO., LTD., priority 2015, dated 2020).

Tests used:
[1] = system: Soybean plants containing control nucleotide sequence (S4 and S5); assay: Herbicide-resistance effect of soybean plants with control sequence (spray, damage degree); format: in vivo; details: 2240 g ae/ha; for Average damage % 6HAT: 6 hours after spraying; for Average damage % 2DAT: 2 days after spraying; for Average damage % 7DAT: 7 days after spraying; for Average damage % 14DAT: 14 days after spraying
Protocol: (§1) Herbicide resistance effects tests to 2,4-D dimethyl ammonium salt and agroxone of soybean plants containing 24DT11 nucleotide sequence and control nucleotide sequence respectively and wild type soybean plants (stages V3-V4) were performed respectively.
(§2) Soybean plants containing 24DT11 nucleotide sequence, control nucleotide sequence and wild type soybean plants were taken and spayed with 2,4-D dimethyl ammonium salt (2240 g ae/ha, four-folds concentration in field), agroxone (2240 g ae/ha, four-folds concentration in field) and blank solvent (water). Take statistics of the damage degree of each plant caused by herbicides according to the curling degree of leaves and the damage degree of growing point six hours ([…]), two days (2DAT), seven days (7DAT) and 14 days (14DAT) after spraying respectively: if leaves are flat like wild-type leaves and the growing point is intact, the damage degree is 0%; if leaves curl up and wilt and the growing point is died, the damage degree is 100%. There are three strains contained a transferred 24DT11 nucleotide sequence (S1, S2 and S3), two strains contained a transferred control sequence (S4 and S5) and one wild-type strain (CK1) in total; select 10˜15 plants from each strain for testing.

[2] = system: Corn plants containing 24DT11 nucleotide sequence (S6, S7 and S8); assay: Herbicide-resistance effect test of transgenic corn plants (spray, prop root development); format: in vivo; details: 21 days after spraying
Protocol: (§3) Herbicide resistance effects tests to 2,4-D dimethyl ammonium salt and agroxone of corn plants containing 24DT11 nucleotide sequence, control nucleotide sequence respectively and wild type corn plants (stages V3-V4) were performed respectively.
(§4) Corn plants containing 24DT11 nucleotide sequence, control nucleotide sequence respectively and wild type corn plants were taken and spayed with 2,4-D dimethyl ammonium salt (8960 g ae/ha, 16-folds concentration in field), agroxone (8960 g ae/ha, 16-folds concentration in field) and blank solvent (water) respectively. Prop root development was counted 21 days after spaying. Three strains (S6, S7 and S8) of corn plants transformed with 24DT11 nucleotide sequence, two strains (S9 and S10) of corn plants transformed with control nucleotide sequence and 1 strain of wild type (CK2) corn were selected and 10-15 plants from each stain were tested.

[3] = system: wild-type Arabidopsis plants; assay: Herbicide resistance effect test of wild-type Arabidopsis (spray); format: in vivo, Arabidopsis thaliana; details: genotype Wild, 560 g ae/ha; for Moderate resistant (number of plants): curly rosette leaves 7 days after spraying; for Non-resistant (number of plants): dead 14 days after spraying; for High resistant (number of plants): growth consistent with blank solvent 7 days after spraying; for Low resistant (number of plants): incapable of bolting 14 days after spraying
Source text: (§5) 24DT11 gene was used to transform Arabidopsis for the first time. At first, T1 transformants were selected from the background of un-transformed seeds, using glufosinate-ammonium selection scheme. About 20000 T1 seeds are screened among which 282 strains of T1 generation positive transformants (PAT gene) were identified, i.e. the transformation efficiency was about 1.4%. Herbicide resistance effect tests to 2,4-D dimethyl ammonium salt and agroxone of Arabidopsis T1 plants transformed with 24DT11 nucleotide sequence, control nucleotide sequence respectively and wild-type Arabidopsis plants were performed after 18 days of planting.
(§6) Arabidopsis T1 plants transformed with 24DT11 nucleotide sequence, control nucleotide sequence respectively and wild-type Arabidopsis plants were sprayed with 2,4-D dimethyl ammonium salt (560 g ae/ha, 1-fold concentration in field), agroxone (560 g ae/ha, 1-fold concentration in field) and blank solvent (water). Resistance conditions of the plants were counted 7 days and 14 days after spraying. Plants with growth conditions consistent with blank solvent (water) 7 days after spaying were classified as highly resistant plants; Plants with curly rosette leaves 7 days after spaying were classified as moderately resistant plants; Plants incapable of bolting 14 days after spaying were classified as low-resistant plants and the dead plants 14 days after spaying were classified as non-resistant plants. Because each Arabidopsis T1 plant is an independent transformation event, significant differences of individual T1 responses can be expected under a given dose.

[4] = system: wild type soybean plants (CK1); assay: Herbicide-resistance effect of wild type soybean (spray, damage degree); format: in vivo; details: wild-type soybean strain CK1, 2240 g ae/ha; for Average damage % 6HAT: 6 hours after spraying; for Average damage % 2DAT: 2 days after spraying; for Average damage % 7DAT: 7 days after spraying; for Average damage % 14DAT: 14 days after spraying
Protocol: as §1, §2

[5] = system: Arabidopsis T1 plants transformed with 24DT11 nucleotide sequence; assay: Herbicide resistance effect test of transgenic Arabidopsis T1 plants (spray); format: in vivo, Arabidopsis thaliana; details: genotype 24DT11; for High resistant (number of plants): 560 g ae/ha (1-fold field concentration), growth consistent with blank solvent 7 days after spraying; for Moderate resistant (number of plants) / Non-resistant (number of plants) / Low resistant (number of plants): 560 g ae/ha; for Moderate resistant (number of plants): curly rosette leaves 7 days after spraying; for Non-resistant (number of plants): dead 14 days after spraying; for Low resistant (number of plants): incapable of bolting 14 days after spraying
Source text: as §5, §6

[6] = system: Soybean plants containing 24DT11 nucleotide sequence (S1, S2 and S3); assay: Herbicide-resistance effect of transgenic soybean plants (spray, damage degree); format: in vivo; details: for Average damage % 6HAT: 6 hours after spraying; for Average damage % 2DAT: 2 days after spraying; for Average damage % 7DAT: 7 days after spraying; for Average damage % 14DAT: 14 days after spraying
Protocol: as §1, §2

[7] = system: wild type corn plants (CK2); assay: Herbicide-resistance effect test of wild type corn (spray, prop root development); format: in vivo; details: wild type corn strain CK2; 8960 g ae/ha; 21 days after spraying
Protocol: as §3, §4

[8] = system: Arabidopsis T1 plants transformed with control nucleotide sequence; assay: Herbicide resistance effect test of Arabidopsis T1 plants with control sequence (spray); format: in vivo, Arabidopsis thaliana; details: genotype Control, 560 g ae/ha; for Moderate resistant (number of plants): curly rosette leaves 7 days after spraying; for Non-resistant (number of plants): dead 14 days after spraying; for High resistant (number of plants): growth consistent with blank solvent 7 days after spraying; for Low resistant (number of plants): incapable of bolting 14 days after spraying
Source text: as §5, §6

[9] = system: Corn plants containing control nucleotide sequence (S9 and S10); assay: Herbicide-resistance effect test of corn plants with control sequence (spray, prop root development); format: in vivo; details: 8960 g ae/ha, 21 days after spraying
Protocol: as §3, §4

[10] = soybean strain S4 (control sequence)
[11] = soybean strain S5 (control sequence)
[12] = corn strain S6 (24DT11), 8960 g ae/ha (16-fold field)
[13] = corn strain S6 (24DT11), 8960 g ae/ha
[14] = corn strain S7 (24DT11), 8960 g ae/ha
[15] = corn strain S8 (24DT11), 8960 g ae/ha
[16] = soybean strain S1 (24DT11), 2240 g ae/ha (4-fold field)
[17] = soybean strain S1 (24DT11), 2240 g ae/ha
[18] = soybean strain S2 (24DT11), 2240 g ae/ha
[19] = soybean strain S3 (24DT11), 2240 g ae/ha
[20] = corn strain S9 (control sequence)
[21] = corn strain S10 (control sequence)

Structure (SMILES): CNC.O=C(O)COc1ccc(Cl)cc1Cl [2,4-D dimethyl ammonium salt]
- Average damage % 6HAT [1, 10]: 46%
- Average damage % 2DAT [1, 10]: 76%
- Average damage % 7DAT [1, 10]: 96%
- Average damage % 14DAT [1, 10]: 100%
- Average damage % 6HAT [1, 11]: 53%
- Average damage % 2DAT [1, 11]: 77%
- Average damage % 7DAT [1, 11]: 91%
- Average damage % 14DAT [1, 11]: 100%
- Normal development of brace roots (number of plants) [2, 12]: 15
- Abnormal development of brace roots (number of plants) [2, 13]: 0
- Proportion of normal development of brace roots [2, 13]: 100.00%
- Abnormal development of brace roots (number of plants) [2, 14]: 0
- Normal development of brace roots (number of plants) [2, 14]: 13
- Proportion of normal development of brace roots [2, 14]: 100.00%
- Abnormal development of brace roots (number of plants) [2, 15]: 0
- Normal development of brace roots (number of plants) [2, 15]: 12
- Proportion of normal development of brace roots [2, 15]: 100.00%
- Moderate resistant (number of plants) [3]: 0
- Non-resistant (number of plants) [3]: 32
- High resistant (number of plants) [3]: 0
- Low resistant (number of plants) [3]: 0
- Average damage % 6HAT [4]: 48%
- Average damage % 2DAT [4]: 72%
- Average damage % 7DAT [4]: 94%
- Average damage % 14DAT [4]: 100%
- High resistant (number of plants) [5]: 26
- Moderate resistant (number of plants) [5]: 2
- Non-resistant (number of plants) [5]: 3
- Low resistant (number of plants) [5]: 1
- Average damage % 6HAT [6, 16]: 7%
- Average damage % 2DAT [6, 17]: 4%
- Average damage % 7DAT [6, 17]: 0%
- Average damage % 14DAT [6, 17]: 0%
- Average damage % 6HAT [6, 18]: 5%
- Average damage % 2DAT [6, 18]: 2%
- Average damage % 7DAT [6, 18]: 0%
- Average damage % 14DAT [6, 18]: 0%
- Average damage % 6HAT [6, 19]: 13%
- Average damage % 2DAT [6, 19]: 6%
- Average damage % 7DAT [6, 19]: 2%
- Average damage % 14DAT [6, 19]: 0%
- Abnormal development of brace roots (number of plants) [7]: 14
- Normal development of brace roots (number of plants) [7]: 0
- Proportion of normal development of brace roots [7]: 0%
- Moderate resistant (number of plants) [8]: 0
- Non-resistant (number of plants) [8]: 32
- High resistant (number of plants) [8]: 0
- Low resistant (number of plants) [8]: 0
- Abnormal development of brace roots (number of plants) [9, 20]: 13
- Normal development of brace roots (number of plants) [9, 20]: 0
- Proportion of normal development of brace roots [9, 20]: 0%
- Abnormal development of brace roots (number of plants) [9, 21]: 12
- Normal development of brace roots (number of plants) [9, 21]: 0
- Proportion of normal development of brace roots [9, 21]: 0%

Structure (SMILES): Cc1cc(Cl)ccc1OCC(=O)O [agroxone]
- Average damage % 6HAT [1, 10]: 38%
- Average damage % 2DAT [1, 10]: 69%
- Average damage % 7DAT [1, 10]: 87%
- Average damage % 14DAT [1, 10]: 100%
- Average damage % 6HAT [1, 11]: 47%
- Average damage % 2DAT [1, 11]: 74%
- Average damage % 7DAT [1, 11]: 92%
- Average damage % 14DAT [1, 11]: 100%
- Normal development of brace roots (number of plants) [2, 12]: 11
- Abnormal development of brace roots (number of plants) [2, 13]: 0
- Proportion of normal development of brace roots [2, 13]: 100.00%
- Abnormal development of brace roots (number of plants) [2, 14]: 0
- Normal development of brace roots (number of plants) [2, 14]: 11
- Proportion of normal development of brace roots [2, 14]: 100.00%
- Abnormal development of brace roots (number of plants) [2, 15]: 0
- Normal development of brace roots (number of plants) [2, 15]: 12
- Proportion of normal development of brace roots [2, 15]: 100.00%
- Moderate resistant (number of plants) [3]: 0
- Non-resistant (number of plants) [3]: 32
- High resistant (number of plants) [3]: 0
- Low resistant (number of plants) [3]: 0
- Average damage % 6HAT [4]: 34%
- Average damage % 2DAT [4]: 61%
- Average damage % 7DAT [4]: 82%
- Average damage % 14DAT [4]: 100%
- High resistant (number of plants) [5]: 22
- Moderate resistant (number of plants) [5]: 4
- Non-resistant (number of plants) [5]: 3
- Low resistant (number of plants) [5]: 2
- Average damage % 6HAT [6, 16]: 12%
- Average damage % 2DAT [6, 17]: 7%
- Average damage % 7DAT [6, 17]: 0%
- Average damage % 14DAT [6, 17]: 0%
- Average damage % 6HAT [6, 18]: 9%
- Average damage % 2DAT [6, 18]: 5%
- Average damage % 7DAT [6, 18]: 0%
- Average damage % 14DAT [6, 18]: 0%
- Average damage % 6HAT [6, 19]: 19%
- Average damage % 2DAT [6, 19]: 12%
- Average damage % 7DAT [6, 19]: 7%
- Average damage % 14DAT [6, 19]: 4%
- Abnormal development of brace roots (number of plants) [7]: 15
- Normal development of brace roots (number of plants) [7]: 0
- Proportion of normal development of brace roots [7]: 0%
- Moderate resistant (number of plants) [8]: 0
- Non-resistant (number of plants) [8]: 32
- High resistant (number of plants) [8]: 0
- Low resistant (number of plants) [8]: 0
- Abnormal development of brace roots (number of plants) [9, 20]: 14
- Normal development of brace roots (number of plants) [9, 20]: 0
- Proportion of normal development of brace roots [9, 20]: 0%
- Abnormal development of brace roots (number of plants) [9, 21]: 12
- Normal development of brace roots (number of plants) [9, 21]: 0
- Proportion of normal development of brace roots [9, 21]: 0%
